Key:
[1] = system: clock genes and metabolic output genes in mouse liver; test: Liver gene expression in HFD-fed WT mice (qPCR, Western blot, microarray); assay type: in vivo
Protocol: For qPCR analysis, cells were split into 6-well plates at an initial density of 3×10^5 cells and incubated for 2-4 days before synchronization (5 μM Fsk or 100 nM Dex) followed by compound treatment. RNA samples were prepared by using PureXtract RNAsol for cDNA synthesis and real-time PCR (GenDEPOT) was performed with a MaxPro3000 Thermocycler (Agilent). qPCR primers used are listed in the table shown in Example 4. Whole cell lysates from cells similarly grown and treated in 60 mm dishes and tissue extracts were prepared as described (Yoo et al., 2013) and subjected to Western blot analysis (GenDEPOT). Antibodies for REV-ERBα (Pierce and Cell Signaling), PER1 (Lee et al., 2001) and other clock proteins (Yoo et al., 2013) were used. Total RNAs prepared from liver tissues from RC-fed, Vehicle-treated and HFD-fed, Vehicle or NOB-treated WT mice for 10 weeks were reverse transcribed into cDNAs, which were then biotin-UTP labeled and hybridized to the Illumina mouse WG-6v2.0 Expression BeadChip. Genes with statistically significant fold change differences was clustered using centered correlation (Cluster 3.0) and then visualized as a heat map on Tree View. Moreover, genes with statistically significant differences derived from microarray analyses were imported into the Ingenuity Pathway Analysis (IPA, http://www.ingenuity.com). In IPA, differentially expressed genes are mapped to genetic networks in the Ingenuity Knowledge Database to generate a set of network and then ranked by score. Heatmaps were generated by using Cluster 3.0 program. ChIP-seq data analysis was conducted as previously described (Koike et al., 2012). The data discussed in this publication have been deposited in NCBI's Gene Expression Omnibus (Edgar et al., 2002) and are accessible through GEO Series accession number GSE78848. To characterize the molecular basis of nobiletin action in HFD-fed WT mice, studies focused on a major metabolic organ, the liver, in which we observed a strong protection by nobiletin was observed. Specifically, total RNAs prepared from liver tissues from RC.Veh and HF.Veh or HF.nobiletin WT mice for 10 weeks were reverse transcribed into cDNAs, which were then biotin-UTP labeled and hybridized to the Illumina mouse WG-6v2.0 Expression BeadChip. The data discussed in this publication have been deposited in the National Center for Biotechnology Information's Gene Expression Omnibus (GEO) and are accessible through GEO Series accession number GSE78848. Real-time qPCR and western blotting analyses of circadian gene expression were conducted as previously described (Yoo et al., 2013). Primers used were as follows: […]

[2] = system: Bmal1 promoter (RORE) with RORα or RORγ; test: Bmal1 promoter-driven luciferase reporter in Hepa1-6 cells; assay type: cell-based, mouse
From the text: Plasmids containing the retinoic acid-related orphan receptor response element (RORE) from mouse Bmal1 promoter, pcDNA3.1B-G4DBD-RORαLBD and pcDNA3.1BG4DBD-RORγLBD were constructed in our lab. Specifically, the 1960 bp sequences (−1830/+130) of the mouse Bmal1 promoter harboring either WT ([…] (SEQ ID NO:1) and […] (SEQ ID NO:2)) or mutant ([…] (SEQ ID NO:3)) RORE were PCR amplified from mouse genomic DNA and cloned into pGL3-promoter luciferase vector. For expression of RORα or RORγ-GAL4 protein, mouse RORα-LBD (aa 261-523) or RORγ-LBD (aa 250-516) were PCR amplified from mouse genomic DNA and cloned into a GAL4-DBD-containing vector, pcDNA3.1B.
For mammalian one-hybrid assays, HEK293T cells were cotransfected with pcDNA3.1B-G4DBD-RORα/γLBD, pGL4.31 and TK promoter Renilla luciferase construct (tK.pRL). To investigate the regulation of the Bmal1 reporter, Hepa1-6 cells were cotransfected with Bmal1-WT or mutant RORE reporter plasmids, RORα, RORγ or Rev-erbα expression construct along with tK.pRL. Mouse and human siRNA targeting RORα and RORγ were purchased from Santa Cruz. Transfection was performed by Lipfectamine 2000 reagent (Invitrogen) Twenty-four hours after transfection, the cells were treated with vehicle or NOB. Lysates were collected 24 h after treatment, and firefly and Renilla luciferase activities were measured by using a Dual-Luciferase Reporter System (Promega).

[3] = Pharmacokinetic study in mice (LC-MS/MS); assay type: in vivo; settings: mouse, oral gavage 200 mg/kg; for exposure in plasma/serum, brain and liver: single dose, 200 mg/kg
Protocol: For diet-induced obesity, male mice at 6 weeks of age were fed with HFD (D12492, Research Diets) until the end of the experimental protocol. The mice were treated with either vehicle (DMSO) or NOB (200 mg/kg body weight) via oral gavage every other day, in the time window of ZT8-10, throughout the experimental period. An every-other-day dosing regimen was chosen at the indicated level based on several reasons. First, previous in vivo studies have used similar overall amounts for mouse treatment (100-125 mg/kg/day) (Lee et al., 2013; Li et al., 2006). The oral gavage procedure was done in late afternoon (ZT8-10) prior to the start of their active phase, reasoning that this may coincide with the time-window adopted by previous studies. Second, daily dosing was not chosen to avoid entraining the experimental mice with the procedure per se as an artificial zeitgeber. Furthermore, pilot pharmacokinetic (PK) assays were done under a single-dose condition (Fig. S7). […] Therefore, it was reasoned that every-other day dosing helps avoid any incomplete daily clearance over the chronic experimental period (10 weeks). NOB was administered orally at ZT8 at a dose of 200 mg/kg in 0.25% sodium Carboxy Methyl Cellulose (CMC) suspension. Three mice per time point were sacrificed at 0.0, 1.0, 2.0, 4.0, 8.0 and 24.0 hr after oral gavage. NOB in plasma, brain and liver was determined by LC-MS/MS (API 4000: EQ-RS-MS-006).

[4] = system: core clock genes in PER2::LucSV cells; test: Real-time qPCR and Western blot of clock genes in PER2::LucSV cells; assay type: cell-based, mouse
Protocol: For qPCR analysis, cells were split into 6-well plates at an initial density of 3×10^5 cells and incubated for 2-4 days before synchronization (5 μM Fsk or 100 nM Dex) followed by compound treatment. RNA samples were prepared by using PureXtract RNAsol for cDNA synthesis and real-time PCR (GenDEPOT) was performed with a MaxPro3000 Thermocycler (Agilent). qPCR primers used are listed in the table shown in Example 4. Whole cell lysates from cells similarly grown and treated in 60 mm dishes and tissue extracts were prepared as described (Yoo et al., 2013) and subjected to Western blot analysis (GenDEPOT). Antibodies for REV-ERBα (Pierce and Cell Signaling), PER1 (Lee et al., 2001) and other clock proteins (Yoo et al., 2013) were used.

[5] = HF.nobiletin versus HF.Veh mice

COc1ccc(-c2cc(=O)c3c(OC)c(OC)c(OC)c(OC)c3o2)cc1OC [nobiletin]
ROR target genes (e.g., Cyp7b1, IkBa, and Gck) ([1]; DIO mouse liver, relative to control treatment): induced | circadian clock transcript oscillations in liver [1, 5]: improved circadian clock transcript oscillations | clock protein rhythms in liver [1, 5]: largely restored clock protein rhythms | transcript expression of Cidec/Fsp27 in liver ([1]; HFD-fed WT mice, qPCR): reverted back to baseline levels | expression of genes involved in gluconeogenesis and glycolysis (e.g., Pdk4 and Pkm2) ([1]; liver): altered the expression | Bmal1 reporter activation with ectopic expression of REV-ERBα [2]: abolished reporter activation | induction of Bmal1 reporter after knockdown of RORα/γ by siRNAs ([2]; Hepa1-6 cells): abrogated the nobiletin-mediated induction | Bmal1 promoter-driven luciferase reporter activity ([2]; WT RORE, in the presence of RORα or RORγ): dose-dependently increase | NOB level 8 hr after single-dose administration [3]: undetectable | exposure in plasma/serum, brain and liver [3]: significant brain and systemic exposure | exposure in plasma/serum, brain and liver ([3]; listed as NOB): significant exposure in serum, brain and particularly liver | CRY1 protein abundance [4]: slight trend of greater protein abundance | CRY1 transcript level [4]: markedly reduced transcript level | Pert transcript levels [4]: moderately altered and reduced at CT20 | expression of other core clock genes [4]: altered | PER2 proteins ([4]; Western blot): accumulate to greater levels
